Measurements as given in patent US9725445B2, “Cycloalkyl nitrile pyrazolo pyridones as Janus kinase inhibitors” (Merck Sharp & Dohme Corp., priority 2013, dated 2017).

Assays:
JAK1 = JAK1 (Homo sapiens (Human), UniProt P23458); test: Jak biochemical HTRF assay, JAK1; conditions: HTRF biochemical assay, recombinant GST-tagged catalytic domain; read-out: JAK1 IC50
JAK2 = JAK2 (Homo sapiens (Human), UniProt O60674); test: Jak biochemical HTRF assay, JAK2; conditions: HTRF biochemical assay, recombinant GST-tagged catalytic domain; read-out: JAK2 IC50
Chain of JAK2 (O60674 849-1124): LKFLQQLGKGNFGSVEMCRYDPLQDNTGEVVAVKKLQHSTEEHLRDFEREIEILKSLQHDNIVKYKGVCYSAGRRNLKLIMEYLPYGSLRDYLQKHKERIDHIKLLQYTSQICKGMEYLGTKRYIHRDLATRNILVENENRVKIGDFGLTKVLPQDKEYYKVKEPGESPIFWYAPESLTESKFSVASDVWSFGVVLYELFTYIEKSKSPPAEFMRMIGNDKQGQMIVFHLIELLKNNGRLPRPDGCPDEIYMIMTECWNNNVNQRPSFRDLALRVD

Chain of JAK1 (P23458 875-1153): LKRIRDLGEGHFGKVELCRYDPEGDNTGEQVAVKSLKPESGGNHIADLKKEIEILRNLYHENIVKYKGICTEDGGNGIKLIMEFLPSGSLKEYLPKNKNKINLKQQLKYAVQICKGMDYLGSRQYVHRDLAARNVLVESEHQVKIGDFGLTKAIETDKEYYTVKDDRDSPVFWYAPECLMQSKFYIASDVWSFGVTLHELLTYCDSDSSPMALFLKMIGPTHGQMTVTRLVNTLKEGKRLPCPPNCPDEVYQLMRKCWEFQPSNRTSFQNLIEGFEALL

Row | IC50 (JAK1) [nM] | IC50 (JAK2) [nM] | SMILES
1 | 0.88 | 31 | N#C[C@H]1C[C@@H](N2CCC2)CC[C@@H]1n1nc(Nc2ccc(OC(F)(F)F)cc2)c2c(=O)[nH]ccc21 [Example 5-24, (1S,2S,5S)-5-(azetidin-1-yl)-2-(4-oxo-3-((4-(trifluoromethoxy)phenyl)amino)-4,5-dihydro-1H-pyrazolo[4,3-c]pyridin-1-yl)cyclohexanecarbonitrile]
2 | 0.91 | 5.8 | N#C[C@H]1CCCC[C@@H]1n1nc(Nc2cccc(CNC(=O)c3ncccn3)c2)c2c(=O)[nH]ccc21 [Example 3-17, N-[3-({1-[(1S,2S)-2-cyanocyclohexyl]-4-oxo-4,5-dihydro-1H-pyrazolo[4,3-c]pyridin-3-yl}amino)benzyl]pyrimidine-2-carboxamide]
3 | 0.079 | 0.92 | N#C[C@H]1CCCC[C@@H]1n1nc(Nc2ccc3c(c2)CN(CCO)S3(=O)=O)c2c(=O)[nH]ccc21 [Example 3-80, (1S,2S)-2-(3-{[2-(2-hydroxyethyl)-1,1-dioxido-2,3-dihydro-1,2-benzisothiazol-5-yl]amino}-4-oxo-4,5-dihydro-1H-pyrazolo[4,3-c]pyridin-1-yl)cyclohexanecarbonitrile]
4 | 0.14 | 0.27 | N#C[C@H]1CCCC[C@@H]1n1nc(Nc2ccc(-c3cnco3)cc2)c2c(=O)[nH]ccc21 [Example 15-8, (1S,2S)-2-(3-{[4-(1,3-oxazol-5-yl)phenyl]amino}-4-oxo-4,5-dihydro-1H-pyrazolo[4,3-c]pyridin-1-yl)cyclohexanecarbonitrile]
5 | 6.1 | 21 | N#C[C@@H]1CCCC[C@H]1n1nc(Nc2ccc(CS(=O)(=O)N3CCCC3)cc2)c2c(=O)[nH]ccc21 [Example 3-3, (1R,2R)-2-(4-oxo-3-((4-((pyrrolidin-1-ylsulfonyl)methyl)phenyl)amino)-4,5-dihydro-1H-pyrazolo[4,3-c]pyridin-1-yl)cyclohexanecarbonitrile]
6 | 0.25 | 1.2 | N#C[C@H]1CCCC[C@@H]1n1nc(Nc2cccc(Cn3cnnc3)c2)c2c(=O)[nH]ccc21 [Example 3-51, (1S,2S)-2-(4-oxo-3-{[3-(4H-1,2,4-triazol-4-ylmethyl)phenyl]amino}-4,5-dihydro-1H-pyrazolo[4,3-c]pyridin-1-yl)cyclohexanecarbonitrile]
7 | 0.12 | 0.37 | CC(C)NS(=O)(=O)c1ccc(Nc2nn([C@H]3CCCC[C@@H]3C#N)c3cc[nH]c(=O)c23)cc1 [Example 3-18, 4-({1-[(1S,2S)-2-cyanocyclohexyl]-4-oxo-4,5-dihydro-1H-pyrazolo[4,3-c]pyridin-3-yl}amino)-N-(1-methylethyl)benzenesulfonamide]
8 | 1 | 8.1 | N#C[C@H]1CCCC[C@@H]1n1nc(Nc2ccc(C3(C(F)(F)F)CC3)cc2)c2c(=O)[nH]ccc21 [Example 15-19]
9 | 0.22 | 0.48 | CC(C)(C)NS(=O)(=O)c1ccc(Nc2nn([C@H]3CCC[C@@H]3C#N)c3cc[nH]c(=O)c23)cc1 [Example 3-107, N-tert-butyl-4-({1-[(1S,2S)-2-cyanocyclopentyl]-4-oxo-4,5-dihydro-1H-pyrazolo[4,3-c]pyridin-3-yl}amino)benzenesulfonamide]
10 | 3.2 | 4.7 | CC(C)(C)OC(=O)NCc1cc(Nc2nn([C@H]3CCCC[C@@H]3C#N)c3cc[nH]c(=O)c23)ccc1F [Example 3-35, tert-butyl [5-({1-[(1S,2S)-2-cyanocyclohexyl]-4-oxo-4,5-dihydro-1H-pyrazolo[4,3-c]pyridin-3-yl}amino)-2-fluorobenzyl]carbamate]
11 | 0.12 | 0.37 | N#C[C@H]1CCCC[C@@H]1n1nc(Nc2ccc([C@@H](N)C(F)(F)F)cc2)c2c(=O)[nH]ccc21 [Example 7-3, (1S,2S)-2-[3-({4-[(1R)-1-amino-2,2,2-trifluoroethyl]phenyl}amino)-4-oxo-4,5-dihydro-1H-pyrazolo[4,3-c]pyridin-1-yl]cyclohexanecarbonitrile]
12 | 0.15 | 0.31 | CCNC(c1ccc(Nc2nn([C@H]3CCC[C@@H]3C#N)c3cc[nH]c(=O)c23)cc1)C(F)(F)F (single isomer, unassigned) [Example 3-113, (1S,2S)-2-[3-({4-[(1R or 1S)-1-(ethylamino)-2,2,2-trifluoroethyl]phenyl}amino)-4-oxo-4,5-dihydro-1H-pyrazolo[4,3-c]pyridin-1-yl]cyclopentanecarbonitrile]
13 | 0.051 | 0.66 | CN1Cc2cc(Nc3nn([C@H]4CCC[C@@H]4C#N)c4cc[nH]c(=O)c34)ccc2S1(=O)=O [Example 3-102, (1S,2S)-2-{3-[(2-methyl-1,1-dioxido-2,3-dihydro-1,2-benzisothiazol-5-yl)amino]-4-oxo-4,5-dihydro-1H-pyrazolo[4,3-c]pyridin-1-yl}cyclopentanecarbonitrile]
14 | 1.8 | 3.1 | CC(C)C(c1ccc(Nc2nn([C@H]3CCCC[C@@H]3C#N)c3cc[nH]c(=O)c23)cc1)n1cc(C(=O)OC(C)(C)C)nn1 (single isomer, unassigned) [Example 15-58, tert-butyl 1-{(1R or 1S)-1-[4-({1-[(1S,2S)-2-cyanocyclohexyl]-4-oxo-4,5-dihydro-1H-pyrazolo[4,3-c]pyridin-3-yl}amino)phenyl]-2-methylpropyl}-1H-1,2,3-triazole-4-carboxylate]
15 | 0.22 | 0.72 | CC1(c2ccc(Nc3nn([C@H]4CCCC[C@@H]4C#N)c4cc[nH]c(=O)c34)cc2)COC1 [Example 15-13, (1S,2S)-2-(3-{[4-(3-methyloxetan-3-yl)phenyl]amino}-4-oxo-4,5-dihydro-1H-pyrazolo[4,3-c]pyridin-1-yl)cyclohexanecarbonitrile]
16 | 0.45 | 10.3 | N#C[C@H]1CCCC[C@@H]1n1nc(Nc2ccc(Cl)cc2)c2c(=O)[nH]ccc21 [Example 3-91, (1S,2S)-2-(3-((4-chlorophenyl)amino)-4-oxo-4,5-dihydro-1H-pyrazolo[4,3-c]pyridin-1-yl)cyclohexanecarbonitrile]
17 | 0.32 | 0.86 | COC(C)(c1ccc(Nc2nn([C@H]3CCCC[C@@H]3C#N)c3cc[nH]c(=O)c23)cc1)C(F)(F)F (single isomer, unassigned) [Example 3-125, (1S,2S)-2-(4-oxo-3-((4-((R or S)-1,1,1-trifluoro-2-methoxypropan-2-yl)phenyl)amino)-4,5-dihydro-1H-pyrazolo[4,3-c]pyridin-1-yl)cyclohexanecarbonitrile]
18 | 0.12 | 0.65 | N#C[C@H]1CCCC[C@@H]1n1nc(Nc2ccc3c(c2)CN(CC2CCCC2)S3(=O)=O)c2c(=O)[nH]ccc21 [Example 3-65, (1S,2S)-2-(3-{[2-(cyclopentylmethyl)-1,1-dioxido-2,3-dihydro-1,2-benzisothiazol-5-yl]amino}-4-oxo-4,5-dihydro-1H-pyrazolo[4,3-c]pyridin-1-yl)cyclohexanecarbonitrile]
19 | 0.12 | 0.71 | CC(C)(C)OC(=O)CC(C)(C)N1Cc2cc(Nc3nn([C@H]4CCCC[C@@H]4C#N)c4cc[nH]c(=O)c34)ccc2S1(=O)=O [Example 3-155, tert-butyl 3-[5-({1-[(1S,2S)-2-cyanocyclohexyl]-4-oxo-4,5-dihydro-1H-pyrazolo[4,3-c]pyridin-3-yl}amino)-1,1-dioxido-1,2-benzisothiazol-2(3H)-yl]-3-methylbutanoate]
20 | 0.081 | 0.54 | N#C[C@H]1CCCC[C@@H]1n1nc(Nc2ccc(C(O)C(F)(F)F)cc2)c2c(=O)[nH]ccc21 (single isomer, unassigned) [Example 3-9, (1S,2S)-2-[4-oxo-3-({4-[(1S or 1R)-2,2,2-trifluoro-1-hydroxyethyl]phenyl}amino)-4,5-dihydro-1H-pyrazolo[4,3-c]pyridin-1-yl]cyclohexanecarbonitrile]
21 | 0.23 | 0.37 | CN(C(C)(C)C)S(=O)(=O)c1ccc(Nc2nn([C@@H]3CCCCC[C@H]3C#N)c3cc[nH]c(=O)c23)cc1 (single isomer, unassigned) [Example 15-51, N-tert-butyl-4-({1-[(1R,2R or 1S,2S)-2-cyanocycloheptyl]-4-oxo-4,5-dihydro-1H-pyrazolo[4,3-c]pyridin-3-yl}amino)-N-methylbenzenesulfonamide]
22 | 0.34 | 11 | CN(C)[C@H]1CC[C@H](n2nc(Nc3ccc(Cl)cc3)c3c(=O)[nH]ccc32)[C@@H](C#N)C1 [Example 5-16, (1S,2S,5S)-2-(3-((4-chlorophenyl)amino)-4-oxo-4,5-dihydro-1H-pyrazolo[4,3-c]pyridin-1-yl)-5-(dimethylamino)cyclohexanecarbonitrile]
23 | 0.47 | 0.45 | CC(C)N1Cc2cc(Nc3nn([C@H]4CCCC[C@@H]4C#N)c4cc[nH]c(=O)c34)ccc2C1C (single isomer, unassigned) [Example 19-2, (1S,2S)-2-(3-(((R or S)-2-isopropyl-1-methylisoindolin-5-yl)amino)-4-oxo-4,5-dihydro-1H-pyrazolo[4,3-c]pyridin-1-yl)cyclohexanecarbonitrile]
24 | 0.55 | 1.1 | N#C[C@H]1CCCC[C@@H]1n1nc(Nc2ccc3c(c2)CN(CC(F)(F)F)C3)c2c(=O)[nH]ccc21 [Example 3-61, (1S,2S)-2-(4-oxo-3-{[2-(2,2,2-trifluoroethyl)-2,3-dihydro-1H-isoindol-5-yl]amino}-4,5-dihydro-1H-pyrazolo[4,3-c]pyridin-1-yl}cyclohexanecarbonitrile]
25 | 0.39 | 1.6 | CN1Cc2ccc(Nc3nn([C@H]4CCCC[C@@H]4C#N)c4cc[nH]c(=O)c34)cc2C1 [Example 3-64, (1S,2S)-2-{3-[(2-methyl-2,3-dihydro-1H-isoindol-5-yl)amino]-4-oxo-4,5-dihydro-1H-pyrazolo[4,3-c]pyridin-1-yl}cyclohexanecarbonitrile]
